pEC50: −log10 of the molar value.
target: T1, Muscarinic acetylcholine receptor M5 (Homo sapiens, UniProt P08912); experiment: PubChem AID 2186
T1 sequence (P08912 whole entry): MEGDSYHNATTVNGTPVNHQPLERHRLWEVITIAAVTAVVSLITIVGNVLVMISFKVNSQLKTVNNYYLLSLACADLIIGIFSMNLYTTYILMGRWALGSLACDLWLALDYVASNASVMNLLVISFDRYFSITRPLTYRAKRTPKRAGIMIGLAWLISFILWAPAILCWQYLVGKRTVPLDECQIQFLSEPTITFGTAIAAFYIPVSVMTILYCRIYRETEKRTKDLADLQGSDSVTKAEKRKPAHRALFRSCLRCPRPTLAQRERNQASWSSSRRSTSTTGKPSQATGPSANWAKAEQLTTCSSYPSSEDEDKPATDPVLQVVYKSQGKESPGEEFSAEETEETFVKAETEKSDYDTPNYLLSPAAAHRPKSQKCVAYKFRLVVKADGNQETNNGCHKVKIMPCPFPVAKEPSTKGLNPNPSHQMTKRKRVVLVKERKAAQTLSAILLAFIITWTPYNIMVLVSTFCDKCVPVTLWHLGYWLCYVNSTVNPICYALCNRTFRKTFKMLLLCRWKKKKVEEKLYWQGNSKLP

Row | pEC50 | SMILES
1 | < 6.35 | O=C1C(=O)N(Cc2ccc(-c3ccccc3)cc2)c2ccc(OC(F)(F)F)cc21
2 | < 6.35 | O=C1C(=O)N(Cc2ccc(-c3ccsc3)cc2)c2ccc(OC(F)(F)F)cc21

Row | SMILES | pEC50
3 | COc1ccc(CN2C(=O)C(=O)c3cc(OC(F)(F)F)ccc32)cc1 [VU0238429] | 9.29

From BindingDB's records for doi:10.7270/Q290226P (Vanderbilt Screening Center For Gpcrs, Ion Channels and …, 2010)
